IC50 data for 19 molecules are collected here from patent US20070287699A1, “ANTIVIRAL AGENTS” (ViroBay, Inc., priority 2006, published 2007).

For the assay, the system named is HCV replicon RNA replication in human Huh7 hepatoma cells. Kind of assay: HCV replicon assay (activity levels from either or both of HCV replicon assay 1, Huh7/Clone A RT-qPCR, and assay 2, Huh7 ET luc-ubi-neo/ET). It counts as cell-based, Hepatitis C virus (HCV). The settings on record: Hepatitis C virus, Huh-7, either or both HCV replicon assays: Huh7/Clone A, 48 hours, 72 hours, Luc activity or RT-PCR, read-out: inhibit HCV replication at IC50 levels or estimated IC50 levels. Summed up:
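Huh7/Clone A subgenomic replicon cells treated 48 h at 37° C. with 7 serial dilutions in triplicate (0.5% DMSO final). Replicon RNA measured by TaqMan RT-qPCR on the neo gene, normalized to RiboGreen total RNA; untreated cells set as 100% for IC50.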
For `O=C1CN(c2cc3c(cc2F)c(=O)c(-c2noc(Cc4ccc(F)cc4)n2)cn3Cc2ccc(C(F)(F)F)cc2F)CCN1` [Compound 87, 6-fluoro-3-[5-(4-fluoro-benzyl)-[1,2,4]oxadiazol-3-yl]-1-(2-fluoro-4-trifluoromethyl-benzyl)-7-(3-oxo-piperazin-1-yl)-1H-quinolin-4-one], the concentration for half-maximal inhibition (IC50) (usually the concentration needed to halve the response being measured) was below 500 nM. In the case of `CN1CCN(c2cc3c(cc2F)c(=O)c(-c2noc(C(CCCC#N)c4ccccc4)n2)cn3Cc2ccc(C(F)(F)F)cc2F)CC1` (stereo not shown) [Compound 88a, 5-{3-[6-fluoro-1-(2-fluoro-4-trifluoromethyl-benzyl)-7-(4-methyl-piperazin-1-yl)-4-oxo-1,4-dihydro-quinolin-3-yl]-[1,2,4]oxadiazol-5-yl}-5-phenyl-pentanenitrile], the IC50 is below 500 nM. With `CN1CCN(c2cc3c(cc2F)c(=O)c(-c2noc(Cc4ccc(F)cc4)n2)cn3C2(c3ccc(C(F)(F)F)cc3)CC2)CC1` [Compound 88b, 6-fluoro-3-[5-(4-fluoro-benzyl)-[1,2,4]oxadiazol-3-yl]-7-(4-methyl-piperazin-1-yl)-1-[1-(4-trifluoromethyl-phenyl)-cyclopropyl]-1H-quinolin-4-one], the IC50 is below 2000 nM. On to `CN1CCN(c2cc3c(cc2F)c(=O)c(-c2noc(C(CCCC(N)=O)c4ccccc4)n2)cn3Cc2ccc(C(F)(F)F)cc2F)CC1` (stereo not shown) [Compound 89, 5-{3-[6-fluoro-1-(2-fluoro-4-trifluoromethyl-benzyl)-7-(4-methyl-piperazin-1-yl)-4-oxo-1,4-dihydro-quinolin-3-yl]-[1,2,4]oxadiazol-5-yl}-5-phenyl-pentanamide], for which the half-inhibitory concentration (IC50) is below 500 nM. As to `CN1CCN(c2cc3c(cc2F)c(=O)c(-c2noc(C4(c5ccccc5)CC4)n2)cn3C2(c3ccc(C(F)(F)F)cc3)CC2)CC1` [Compound 90, 6-fluoro-7-(4-methyl-piperazin-1-yl)-3-[5-(1-phenyl-cyclopropyl)-[1,2,4]oxadiazol-3-yl]-1-[1-(4-trifluoromethyl-phenyl)-cyclopropyl]-1H-quinolin-4-one], the concentration for half-maximal inhibition (IC50) was above 10000 nM.

`CN1CCN(c2cc3c(cc2F)c(=O)c(-c2noc(Cc4ccc(F)cc4)n2)cn3Cc2cccc(C(F)(F)F)c2)CC1` [Compound 91, 6-fluoro-3-[5-(4-fluoro-benzyl)-[1,2,4]oxadiazol-3-yl]-7-(4-methyl-piperazin-1-yl)-1-(3-trifluoromethyl-benzyl)-1H-quinolin-4-one]: the 50% inhibitory concentration (IC50) was below 2000 nM. For the molecule `CN1CCN(c2cc3c(cc2F)c(=O)c(-c2noc(C(C)(C)c4ccccc4)n2)cn3Cc2ccc(Cl)nc2)CC1` [Compound 92, 1-(6-chloro-pyridin-3-ylmethyl)-6-fluoro-3-[5-(1-methyl-1-phenyl-ethyl)-[1,2,4]oxadiazol-3-yl]-7-(4-methyl-piperazin-1-yl)-1H-quinolin-4-one], the concentration for half-maximal inhibition (IC50) was below 500 nM. As for `O=c1c(-c2noc(Cc3ccccc3)n2)cn(Cc2ccc(C(F)(F)F)cc2F)c2ccccc12` [Compound 94, 3-(5-benzyl-[1,2,4]oxadiazol-3-yl)-1-(2-fluoro-4-trifluoromethyl-benzyl)-1H-quinolin-4-one], the figure is above 10000 nM. With `N#CCCCC(c1ccccc1)c1nc(-c2cn(Cc3ccc(C(F)(F)F)cc3F)c3ccccc3c2=O)no1` (stereo not shown) [Compound 95, 5-{3-[1-(2-fluoro-4-trifluoromethyl-benzyl)-4-oxo-1,4-dihydro-quinolin-3-yl]-[1,2,4]oxadiazol-5-yl}-5-phenyl-pentanenitrile] the figure was above 10000 nM. Turning to `CN1CCN(c2cc3c(cc2F)c(=O)c(-c2noc(C(C)(C)c4ccccc4)n2)cn3C2(c3ccc(C(F)(F)F)cc3)CC2)CC1` [Compound 96, 6-fluoro-3-[5-(1-methyl-1-phenyl-ethyl)-[1,2,4]oxadiazol-3-yl]-7-(4-methyl-piperazin-1-yl)-1-[1-(4-trifluoromethyl-phenyl)-cyclopropyl]-1H-quinolin-4-one], the half-inhibitory concentration (IC50) was below 500 nM. For the molecule `CN(CC(N)=O)c1cc2c(cc1F)c(=O)c(-c1noc(Cc3ccccc3)n1)cn2Cc1ccc(C(F)(F)F)cc1` [Compound 97, 2-{[3-(5-benzyl-[1,2,4]oxadiazol-3-yl)-6-fluoro-4-oxo-1-(4-trifluoromethyl-benzyl)-1,4-dihydro-quinolin-7-yl]-methyl-amino}-acetamide], the concentration for half-maximal inhibition (IC50) is above 10000 nM. As for `CN1CCN(c2cc3c(cc2F)c(=O)c(-c2noc(C(C)(C)c4ccccc4)n2)cn3Cc2cccc(C(F)(F)F)c2)CC1` [Compound 98, 6-fluoro-3-[5-(1-methyl-1-phenyl-ethyl)-[1,2,4]oxadiazol-3-yl]-7-(4-methyl-piperazin-1-yl)-1-(3-trifluoromethyl-benzyl)-1H-quinolin-4-one], the figure is below 500 nM; as for `NC(=O)CCCC(c1ccccc1)c1nc(-c2cn(Cc3ccc(C(F)(F)F)cc3F)c3ccccc3c2=O)no1` (stereo not shown) [Compound 99, 5-{3-[1-(2-fluoro-4-trifluoromethyl-benzyl)-4-oxo-1,4-dihydro-quinolin-3-yl]-[1,2,4]oxadiazol-5-yl}-5-phenyl-pentanoic acid amide], above 10000 nM. For the molecule `CC(C)(c1ccccc1)c1nc(-c2cn(Cc3ccc(C(F)(F)F)cc3)c3cc(N4CCS(=O)(=O)CC4)c(F)cc3c2=O)no1` [Compound 100, 7-(1,1-dioxo-thiomorpholin-4-yl)-6-fluoro-3-[5-(1-methyl-1-phenyl-ethyl)-[1,2,4]oxadiazol-3-yl]-1-(4-trifluoromethyl-benzyl)-1H-quinolin-4-one], the IC50 is below 500 nM.

For `CC(C)(c1ccccc1)c1nc(-c2cn(Cc3ccc(C(F)(F)F)cc3)c3cc(N4CCSCC4)c(F)cc3c2=O)no1` [Compound 101, 6-fluoro-3-[5-(1-methyl-1-phenyl-ethyl)-[1,2,4]oxadiazol-3-yl]-7-thiomorpholin-4-yl-1-(4-trifluoromethyl-benzyl)-1H-quinolin-4-one], the IC50 is below 500 nM. For `CC(C)(C)c1ccc(Cn2cc(-c3noc(Cc4ccccc4)n3)c(=O)c3cc(F)c(N4CCCNCC4)cc32)cc1` [Compound 102, 3-(5-benzyl-[1,2,4]oxadiazol-3-yl)-1-(4-tert-butyl-benzyl)-7-[1,4]diazepan-1-yl-6-fluoro-1H-quinolin-4-one], the 50% inhibitory concentration (IC50) is below 2000 nM. With `CN1CCCN(c2nc3c(cc2F)c(=O)c(-c2noc(C(C)(C)c4ccccc4)n2)cn3Cc2ccc(C(F)(F)F)cc2)CC1` [Compound 103, 6-fluoro-7-(4-methyl-[1,4]diazepan-1-yl)-3-[5-(1-methyl-1-phenyl-ethyl)-[1,2,4]oxadiazol-3-yl]-1-(4-trifluoromethyl-benzyl)-1H-[1,8]naphthyridin-4-one] the figure was below 2000 nM; with `O=C(O)c1cn(-c2cc3c(cc2F)c(=O)c(-c2noc(Cc4ccccc4)n2)cn3Cc2ccc(C(F)(F)F)cc2F)cn1` [Compound 104, 1-(3-(5-benzyl-1,2,4-oxadiazol-3-yl)-6-fluoro-1-(2-fluoro-4-(trifluoromethyl)benzyl)-4-oxo-1,4-dihydroquinolin-7-yl)-1H-imidazole-4-carboxylic acid], above 10000 nM. Take `NC(=O)Cc1ccc2c(c1)c(=O)c(-c1noc(Cc3ccccc3)n1)cn2Cc1ccc(C(F)(F)F)cc1F` [Compound 105, 2-(3-(5-benzyl-1,2,4-oxadiazol-3-yl)-1-(2-fluoro-4-(trifluoromethyl)benzyl)-4-oxo-1,4-dihydroquinolin-6-yl)acetamide]: the 50% inhibitory concentration (IC50) is above 10000 nM.
